# Experimental data reported in patent publication US20140249143A1, “Compounds And Methods For Enhancing Innate Immune Responses” (GlaxoSmithKline LLC, priority 2011, published 2014).
# What was measured:
# [1] = test system: HCV genotype 1a subgenomic replicon; test: Anti-Hepatitis C replicon assay, genotype 1a (luciferase); format: cell-based; conditions: Hepatitis C virus; luciferase activity measured 48 hours later; read-out: HCV Genotype 1A Replicon pEC50 (converted)
# Outline: (§1)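 The 1b line is ET cells carrying the I389luc-ubi-neo/NS3-3′/ET replicon with adaptive mutations E1202G, T1280I and K1846T; the 1a line is an Apath replicon line modified with firefly luciferase. Cells were exposed 48 h to compound (final 0.03 pM–50 μM, 0.5-1% DMSO), read by Steady-Glo luciferase, and IC50 came from 10-point four-parameter logistic fits; cytotoxicity was read by CellTiter-Glo.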
# [2] = test system: HCV genotype 1b subgenomic replicon; test: Anti-Hepatitis C replicon assay, genotype 1b (luciferase); format: cell-based; conditions: Hepatitis C virus; luciferase activity measured 48 hours later; read-out: HCV Genotype 1B Replicon pEC50 (converted)
# Outline: as §1
# ISGs and cytokines mRNA = test: Induction of ISGs in mice in vivo; design: species or system Balb/c mice
# Experimental: Naive Balb/c mice were purchased from Charles River Laboratories (Wilmington, Mass.) and administered with murine IFNα2 (30 ug/kg) intravenously or administered with oral Example 1 (300 mg/kg in 30/70% solutol/polyethylene glycol 400). The mice were then euthanized by CO2 inhalation at 0.5, 2, 6, 8, and 24 hours for sample collection. Four mice per dose group were tested.
# For RNA isolation, the blood was collected in an RNAprotect™ tube (Qiagen) and processed with RNeasy Protect™ animal blood kit (Qiagen) according to the manufacturer's protocol. To preserve RNA, 30-200 mg of tissue pieces were stored in RNAlater™ solution (Invitrogen) until use. For RNA isolation, the thawed tissues were homogenized using a TissueLyser™ system (Qiagen) and processed with RNeasy 96 Universal Tissue Kit™ (Qiagen) according to the manufacturer's protocol. To remove DNA contamination, on-plate DNase digestion was included during the RNA purification.
# For real time RT-PCR, cDNA was made using High Capacity cDNA Reverse Transcription Kit™ (Applied Biosystems). Gene expression was measured using TaqMan Fast Universal PCR Master Mix™ (Applied Biosystems) and gene specific probes and murine primers in HT7900 FAST System™ (Invitrogen). As housekeeping genes, actin and GAPDH were used for normalization. Data was calculated by the ΔΔCt method and fold change determined compared to non-treated control samples.
# [3] = test system: ISG56 (Interferon-Stimulated Gene 56) promoter ISRE; test: ISG56 luciferase reporter assay in HEK 293 cells; format: cell-based; conditions: Homo sapiens, HEK293; HEK 293 reporter, 24 hours; 100% = small molecule control test compound; read-out: ISG56 (Average Max Response) %
# Outline: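 HEK 293 cells stably carrying a firefly luciferase reporter driven by the ISG56 promoter ISRE were incubated with compounds (11-point, 3-fold dilutions) for 24 h at 37 °C, 10,000 cells/well. Steady-Glo luminescence was normalized to DMSO and control-agonist wells, and pEC50 came from a four-parameter fit.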
compound,measurement,setting,value
"FC(F)(F)c1cc(C(F)(F)F)c2ccc3nc(-c4nnco4)cn3c2n1 [Compound 1, 2-[2,4-bis(trifluoromethyl)imidazo[1,2-a]1,8-naphthyridin-8-yl]-1,3,4-oxadiazole]",EC50,[1],50.1 nM
same,EC50,[2],200 nM
same,up-regulation of ISGs at 24 hours,"ISGs and cytokines mRNA; Example 1 oral 300 mg/kg, murine IFNα2 30 ug/kg intravenously",appeared to sustain
same,"mRNA for Mx1, OAS1A, OAS2, CXCL10, ISG15, and IL6","ISGs and cytokines mRNA; oral 300 mg/kg, Balb/c mice",marked increase
same,Emax,[3],302%
